Results: patent publication US20250249025A1, “DRUG DELIVERY CARRIER UTILIZING PROPERTY OF D-ALLOSE BEING UPTAKEN BY CANCER CELL, DRUG DELIVERY METHOD, AND COMPOSITION FOR TREATING RENAL CELL CARCINOMA” (NATIONAL UNIVERSITY CORPORATION KAGAWA UNIVERSITY, priority 2019, published 2025)

What was measured:
[1] = test system: human renal cell carcinoma cell line ACHN; assay: Rare sugar uptake experiment, sugar content in disrupted cell suspension of ACHN; format: cell-based
Experimental: (§1) An uptake amount of a rare sugar, which had been added to a medium, into carcinoma cells was analyzed using the cell lines of three types of cancers. As the rare sugar, four kinds, that is, D-allose, D-allulose (D-psicose), L-allulose (L-psicose), and allitol were used, while D-glucose and fructose were used as a monosaccharide which was not a rare sugar.
(§2) Cells of each of the cell lines were cultured in RPMI-1640 media and during culturing, six sugars were each added to the resulting media and cultured. After culturing, an amount of each sugar taken up into the cells was analyzed. The medium to which no sugar was added during culturing was used as a control.
(§3) Used were human bladder carcinoma cell lines (RT112, 253), and J82), human prostatic carcinoma cell lines (LNCa, Du145, and PC-3), and human renal cell carcinoma cell lines (ACHN, Caki-I, and Caki-II).
(§4) After cells were cultured in RPMI-1640 (2000 mg D-glucose/L) media, the above monosaccharides and rare sugars were added to the resulting media, respectively. Described specifically, they were following seven combinations: RPMI-1640 alone (control), RPMI-1640+D-glucose, RPMI-1640+L-allulose, RPMI-1640+D-allulose, RPMI-1640+D-fructose, RPMI-1640+D-allose, and RPMI-1640+D-allitol. The final concentration of the sugar in the medium was adjusted to 10 mM and no sugar was added in the control.
(§5) Five-ml portions of a 3.0×10^4 cells/ml cell suspension prepared using RPMI-1640 were seeded in dishes having a diameter of 6 cm (1.5×10^5 cells/dish) and cultured for 24 hours in the RPMI-1640 medium containing 2000 mg/l of D-glucose as a nutrient source. Twenty-four hours later, the media were changed to the culture solutions containing the monosaccharides and rare sugars described above in 2), respectively, followed by culturing for 48 hours.
(§6) After culturing for 48 hours, the attached human carcinoma cells were mechanically separated and collected in a Spitz tube together with the culture solution and floating cells. After the supernatant formed by centrifugation (4° C., 1200 rpm, and 5 minutes) was removed to obtain cell pellets alone, 5 ml of a phosphate buffer physiological saline (PBS) was added for the purpose of washing to obtain a cell suspension of the cell pellets. A gain, the resulting cell suspension was centrifuged at 4° C. and 1200 rpm for 5 minutes and the supernatant was removed. To the cell pellets after washing was added 1 ml of pure water to suspend them therein. Ultrasonic disruption (intensity: 40%, 30 seconds) was then performed and the monosaccharide in the disrupted cell suspension was labeled with ABEE, followed by analysis by HPLC. From the area thus obtained, the sugar content in the cells was determined using a calibration curve. With respect to the ketose, two peaks were found after labeling with ABEE so that the sugar content in the cells was determined from the calibration curves of both peaks.

[2] = test system: human renal cell carcinoma cell line Caki-I; assay: Rare sugar uptake experiment, sugar content in disrupted cell suspension of Caki-I; format: cell-based
Experimental: as §1, §2, §3, §4, §5, §6

[3] = test system: human renal cell carcinoma cell line Caki-II; assay: Rare sugar uptake experiment, sugar content in disrupted cell suspension of Caki-II; format: cell-based
Experimental: as §1, §2, §3, §4, §5, §6

[4] = test system: ACHN tumor; assay: D-allose concentration in tumor after intraperitoneal injection, ACHN xenograft mouse model; format: in vivo; details: ACHN xenograft mice, 400 mg/kg intraperitoneal
Experimental: The experiment of the present example used two human renal cell carcinoma cell lines (Caki-I and ACHN). Each cell was cultured under the wet environment of 37° C. and 5% CO2 by using a RPMI-1640 culture solution (2000 mg D-glucose/L) containing a 10% fetal calf serum, a HEPES buffer, and penicillin-streptomycin.
With respect to a renal cell carcinoma xenograft mouse model, a 1.0×10^5 cells/ml of a cell suspension was obtained by adjusting the cultured cells with a MEM culture solution and then 0.1 ml of the resulting suspension was injected into the femoral subcutaneous tissue of Female athymic nude mice (BALB/c-nu/nu, 6-week-old). After checking that the tumor volume was 200 mm^3 or more one week after the injection, the mice were provided for the experiment thereafter.
A 400 mg/kg/0.4 mL solution of rare sugar D-allose was prepared using physiological saline and was intraperitoneally injected into the xenograft mouse models of two human renal cell carcinoma cell lines (Caki-I and ACHN) through a 27 G needle. A tumor was enucleated from the mouse before […] administration and 1 hour, 2 hours, and 4 hours after the administration. […] A monosaccharide in the supernatant thus obtained was labeled with ABEE (4-aminobenzoic acid ethyl ester) and the quantitative analysis of D-allose was performed by HPLC (high performance liquid chromatography). […]

What does the source list for `O=C[C@H](O)[C@H](O)[C@H](O)[C@H](O)CO` [D-allose]?
D-glucose content in cell ([1]; ACHN, named sugar added to RPMI-1640 at 10 mM, 48 hours, HPLC after ABEE labeling): 1.8 µg; Content in cell of the added sugar ([1]; human, 48 h, 10 mM): 11.2 µg; D-glucose content in cell ([2]; Caki-I, named sugar added to RPMI-1640 at 10 mM, 48 hours, HPLC after ABEE labeling): 2.1 µg; Content in cell of the added sugar ([2]; human, 48 h, 10 mM): 13.2 µg; D-glucose content in cell ([3]; Caki-II, named sugar added to RPMI-1640 at 10 mM, 48 hours, HPLC after ABEE labeling): 3.4 µg; Content in cell of the added sugar ([3]; human, 48 h, 10 mM): 11.2 µg; D-allose in tumor one hour after intraperitoneal injection ([4]; HPLC, FIG. 4): detected; Time after injection at which D-allose concentration in tumor became the highest ([4]; sampled 1, 2, 4 hours): two
